Measurements as given in ChEMBL document CHEMBL5050844 (2019).

Tests used:
[1] = Induction of allogenic human T cell activation at 10 uM assessed fold increase in cell proliferation; format: functional, T cell line
[2] = Induction of anti-CD3 antibodies-stimulated human T cell activation at 8 uM assessed fold increase in CD25 expression measured by ELISA assay; format: functional, T cell line; note: reference of the scale not given here
[3] = Induction of anti-CD3/CD28 antibodies-stimulated human T cell activation at 4 uM assessed fold increase in CD25 expression measured by ELISA assay; format: functional, T cell line
[4] = Induction of anti-CD3/CD28 antibodies-stimulated human CD4+ T cell activation at 1.11 uM assessed fold increase in cell proliferation measured by flow cytometry analysis; format: functional, T cell line
[5] = Induction of anti-CD3 antibodies-stimulated human CD8+ T cell activation at 10 uM assessed fold increase in cell proliferation measured by flow cytometry analysis; format: functional, T cell line; note: reference of the scale not given here
[6] = Induction of anti-CD3/CD28 antibodies-stimulated human T cell activation at 1.11 uM assessed fold increase in IFN-gamma secretion measured by ELISA assay; format: functional, T cell line
[7] = Induction of activation of human CD56+ CD3- NK cells co-cultured with human K562 cells in 1:1 ratio and assessed as increase in IFN-gamma secretion at 10 uM measured by ELISA assay; format: functional, Natural killer cell
[8] = Induction of anti-CD3 antibodies-stimulated human T cell activation at 1 uM assessed fold increase in IL-2 secretion measured by ELISA assay; format: functional, T cell line; note: reference of the scale not given here
[9] = Induction of anti-CD3/CD28 antibodies-stimulated human T cell activation at 1.11 uM assessed fold increase in GM-CSF secretion measured by ELISA assay; format: functional, T cell line
[10] = Induction of anti-CD3 antibodies-stimulated human exhausted T cell activation assessed fold increase in IL-2 secretion measured by ELISA assay; format: functional, T cell line; note: reference of the scale not given here
[11] = Induction of anti-CD3/CD28 antibodies-stimulated human CD4+ T cell activation at 1.11 uM assessed fold increase in CD69 expression measured by flow cytometry analysis; format: functional, T cell line
[12] = Induction of anti-CD3/CD28 antibodies-stimulated human T cell activation at 1.11 uM assessed fold increase in TNF-alpha secretion measured by ELISA assay; format: functional, T cell line
[13] = Induction of anti-CD3/CD28 antibodies-stimulated human T cell activation at 4 uM assessed fold increase in IL-2 secretion measured by ELISA assay; format: functional, T cell line
[14] = Induction of anti-CD3 antibodies-stimulated human T cell activation at 8 uM assessed fold increase in IL-2 secretion measured by ELISA assay; format: functional, T cell line; note: reference of the scale not given here
[15] = Induction of anti-CD3/CD28 antibodies-stimulated human CD4+ T cell activation at 10 uM assessed fold increase in CD69 expression measured by flow cytometry analysis; format: functional, T cell line
[16] = Induction of anti-CD3/CD28 antibodies-stimulated human CD8+ T cell activation at 1.11 uM assessed fold increase in CD69 expression measured by flow cytometry analysis; format: functional, T cell line
[17] = Induction of anti-CD3/CD28 antibodies-stimulated human CD8+ T cell activation at 10 uM assessed fold increase in CD69 expression measured by flow cytometry analysis; format: functional, T cell line
[18] = Induction of anti-CD3/CD28 antibodies-stimulated human anergic T cell activation at 10 uM assessed fold increase in IFN-gamma secretion measured by ELISA assay; format: functional, T cell line
[19] = Induction of anti-CD3 antibodies-stimulated human exhausted T cell activation assessed fold increase in IFN-gamma secretion measured by ELISA assay; format: functional, T cell line; note: reference of the scale not given here
[20] = Induction of activation of human CD56+ CD3- NK cells co-cultured with human K562 cells in 1:1 ratio and assessed as increase in IFN-gamma secretion at 2.5 uM measured by ELISA assay; format: functional, Natural killer cell
[21] = Induction of anti-CD3/CD28 antibodies-stimulated human T cell activation at 1 uM assessed fold increase in IL-2 secretion measured by ELISA assay; format: functional, T cell line
B cell = assay: Induction of anti-IgM-stimulated human CD20+ B cell activation at 10 to 1000 uM assessed as increase in CD69 expression measured as mean fluorescence intensity AUC by flow cytometry analysis; format: functional, cell-based; details: dose 10-1000 µM
[22] = Induction of anti-CD3 antibodies-stimulated human T cell activation at 10 uM assessed fold increase in TNF-alpha secretion measured by ELISA assay; format: functional, T cell line; note: reference of the scale not given here
[23] = Induction of anti-CD3 antibodies-stimulated human CD4+ T cell activation at 10 uM assessed fold increase in CD69 expression measured by flow cytometry analysis; format: functional, T cell line; note: reference of the scale not given here
[24] = Induction of anti-CD3 antibodies-stimulated human CD4+ T cell activation at 1.11 uM assessed fold increase in CD69 expression measured by flow cytometry analysis; format: functional, T cell line; note: reference of the scale not given here
[25] = Induction of anti-CD3 antibodies-stimulated human exhausted CD4+ T cell activation assessed fold increase in CTLA4 expression measured by flow cytometry analysis; format: functional, T cell line; note: reference of the scale not given here
[26] = Induction of anti-CD3/CD28 antibodies-stimulated human CD8+ T cell activation at 10 uM assessed fold increase in cell proliferation measured by flow cytometry analysis; format: functional, T cell line
[27] = Induction of anti-CD3 antibodies-stimulated human T cell activation at 1.11 uM assessed fold increase in TNF-alpha secretion measured by ELISA assay; format: functional, T cell line; note: reference of the scale not given here
[28] = Induction of anti-CD3 antibodies-stimulated human T cell activation at 10 uM assessed fold increase in IFN-gamma secretion measured by ELISA assay; format: functional, T cell line; note: reference of the scale not given here
[29] = Induction of activation of human CD56+ CD3- NK cells co-cultured with human K562 cells in 1:1 ratio and assessed as increase in TNF-alpha secretion at 2.5 uM measured by ELISA assay; format: functional, Natural killer cell
[30] = Induction of anti-CD3/CD28 antibodies-stimulated human T cell activation at 0.3 uM assessed fold increase in IL-2 secretion measured by ELISA assay; format: functional, T cell line
[31] = Induction of anti-CD3/CD28 antibodies-stimulated human T cell activation at 10 uM assessed fold increase in GM-CSF secretion measured by ELISA assay; format: functional, T cell line
[32] = Induction of anti-CD3/CD28 antibodies-stimulated human T cell activation at 10 uM assessed fold increase in TNF-alpha secretion measured by ELISA assay; format: functional, T cell line
[33] = Induction of anti-CD3/CD28 antibodies-stimulated human anergic T cell activation at 0.37 uM assessed fold increase in IFN-gamma secretion measured by ELISA assay; format: functional, T cell line
[34] = Induction of activation of human CD56+ CD3- NK cells co-cultured with human K562 cells in 1:1 ratio and assessed as increase in TNF-alpha secretion at 0.625 uM measured by ELISA assay; format: functional, Natural killer cell
[35] = Induction of anti-CD3/CD28 antibodies-stimulated human T cell activation at 10 uM assessed fold increase in IFN-gamma secretion measured by ELISA assay; format: functional, T cell line
[36] = Induction of activation of human CD56+ CD3- NK cells co-cultured with human K562 cells in 1:1 ratio and assessed as increase in IFN-gamma secretion at 0.625 uM measured by ELISA assay; format: functional, Natural killer cell
[37] = Induction of allogenic human T cell activation at 3 uM assessed fold increase in cell proliferation; format: functional, T cell line

| SMILES | fold change (FC) [1] | fold change (FC) [4] | fold change (FC) [5] | fold change (FC) [7] | fold change (FC) [8] | fold change (FC) [10] | fold change (FC) [11] | fold change (FC) [15] | fold change (FC) [16] | fold change (FC) [17] | fold change (FC) [18] | fold change (FC) [19] | fold change (FC) [20] | fold change (FC) [21] | fold change (FC) [23] | fold change (FC) [24] | fold change (FC) [25] | fold change (FC) [26] | fold change (FC) [29] | fold change (FC) [30] | also measured |
| --- | --- | --- | --- | --- | --- | --- | --- | --- | --- | --- | --- | --- | --- | --- | --- | --- | --- | --- | --- | --- | --- |
| Cn1cnnc1CC1(c2cccc(N3Cc4c(cc(CN5CC[C@H](C#N)C5)cc4C(F)(F)F)C3=O)c2)COC1 | 2.01 | >4 | >4 | 2.01 | >=0.201 | <=2.5 | 1.201 | 1.401 | 1.201 | 1.201 | 2.51 | <=1.4 | 1.01 | >=7.5 | >1.601 | 1.401 | >1.61 | 3.01 | 1.01 | 5 | fold change (FC) [2]: >=1.001; fold change (FC) [3]: 1.31; fold change (FC) [6]: 3.01; fold change (FC) [9]: 2.01; fold change (FC) [12]: 2.01; fold change (FC) [13]: >=7.5; fold change (FC) [14]: >=0.201; AUC (B cell): 1.01; fold change (FC) [22]: 1.51; fold change (FC) [27]: <=1.5; fold change (FC) [28]: 3.01; fold change (FC) [31]: >4; fold change (FC) [32]: 2.01; fold change (FC) [33]: <=2.5; fold change (FC) [34]: 1.01; fold change (FC) [35]: >4; fold change (FC) [36]: 2.01; fold change (FC) [37]: <=2 |
| C[C@H](Cc1nncn1C)c1cccc(NC(=O)c2cc3cc(N4CCNCC4)ccc3cn2)c1.Cl | <=2 | 3.01 | <=2 | 2.01 | 0.101 | <=2.5 | 1.201 | 1.401 | <=1.2 | 1.201 | 2.51 | >1.61 | <=1 | 1.01 | 1.401 | 1.401 | 1.41 | 2.01 | <=1 | <=1 | fold change (FC) [2]: 0.801; fold change (FC) [3]: 1.01; fold change (FC) [6]: <=2; fold change (FC) [9]: 1.51; fold change (FC) [12]: 1.51; fold change (FC) [13]: 2.51; fold change (FC) [14]: 0.101; AUC (B cell): 1.01; fold change (FC) [22]: <=1.5; fold change (FC) [27]: <=1.5; fold change (FC) [28]: <=2; fold change (FC) [31]: 2.01; fold change (FC) [32]: 1.51; fold change (FC) [33]: <=2.5; fold change (FC) [34]: <=1; fold change (FC) [35]: <=2; fold change (FC) [36]: 1.01; fold change (FC) [37]: <=2 |
| C[C@@H](Sc1nncn1C)c1cccc(NC(=O)c2cccc(C(F)(F)F)n2)c1 | <=2 | 3.01 | >4 | 1.01 | 0.051 | <=2.5 | 1.201 | 1.401 | <=1.2 | 1.201 | <=2.5 | <=1.4 | 1.01 | 1.01 | 1.401 | >1.601 | <=1.4 | >4 | 1.01 | 1.01 | fold change (FC) [2]: 0.601; fold change (FC) [3]: 1.01; fold change (FC) [13]: 1.01; fold change (FC) [14]: 0.051; AUC (B cell): < 0.5; fold change (FC) [33]: <=2.5; fold change (FC) [34]: 1.01; fold change (FC) [36]: <=1; fold change (FC) [37]: <=2 |
| COC1CN(Cc2cc3c(c(C(F)(F)F)c2)CN(c2cccc([C@@](C)(F)C(F)(F)c4nncn4C)c2)C3=O)C1 | <=2 | >4 | >4 | >=5 | 0.151 | <=2.5 | 1.201 | 1.401 | 1.201 | 1.201 | >4.01 | >1.61 | >=5 | 5 | >1.601 | 1.401 | >1.61 | >4 | 2.01 | 2.51 | fold change (FC) [2]: >=1.001; fold change (FC) [3]: 1.31; fold change (FC) [6]: <=2; fold change (FC) [9]: 2.01; fold change (FC) [12]: 1.51; fold change (FC) [13]: >=7.5; fold change (FC) [14]: >=0.201; fold change (FC) [22]: 1.51; fold change (FC) [27]: <=1.5; fold change (FC) [28]: 3.01; fold change (FC) [31]: 2.01; fold change (FC) [32]: 2.01; fold change (FC) [33]: <=2.5; fold change (FC) [34]: 1.01; fold change (FC) [35]: 2.01; fold change (FC) [36]: 2.01; fold change (FC) [37]: <=2 |
| Cn1cnnc1CC1(c2cccc(N3Cc4c(cc(CN5CCC6(CC6)C5)cc4C(F)(F)F)C3=O)c2)COC1 | >3 | >4 | >4 | >=5 | >=0.201 | 2.51 | >1.601 | >1.601 | 1.201 | 1.201 | >4.01 | <=1.4 | >=5 | >=7.5 | >1.601 | >1.601 | >1.61 | >4 | >=5 | >=7.5 | fold change (FC) [6]: >4; fold change (FC) [9]: >4; fold change (FC) [12]: 2.01; AUC (B cell): > 1.51; fold change (FC) [22]: 2.01; fold change (FC) [27]: 2.01; fold change (FC) [28]: >4; fold change (FC) [31]: >4; fold change (FC) [32]: >4; fold change (FC) [33]: <=2.5; fold change (FC) [34]: 2.01; fold change (FC) [35]: >4; fold change (FC) [36]: 2.01; fold change (FC) [37]: >3 |
